In brackets after ≈: the same amount, converted by molar mass.

Assay in the first data set: not given
Particulars: buffer.
`CC(C)Cn1c(=O)n(C)c(=O)c2c(SCCCO)n(Cc3cccc4ccccc34)cc21` returned a solubility of 80 µg/mL (≈ 177 µM).

A further data set is described as follows: physchem. Particulars: aqueous.
`CC(C)Cn1c(=O)n(C)c(=O)c2c(C(=O)N3CC[C@@H](O)C3)c(Cc3ccnc4ccccc34)sc21` had a solubility of 520 µg/mL (≈ 1060 µM).
The same measure, in the same setting: for `CC(C)Cc1nn(C)c(=O)c2c(SCCCO)n(Cc3cccc4ccccc34)cc12` the value was under 1 µg/mL.

The nature of the next data set: physchem. Particulars: octanol/water.
Regarding `CC(C)Cn1c(=O)n(C)c(=O)c2c(C(=O)N3CC[C@@H](O)C3)c(Cc3cncc4ccccc34)sc21`, the logD was determined as 1.7.
Still for that read-out and setting: in the case of `CC(C)Cn1c(=O)n(C)c(=O)c2c(SC3CCC3)c(Cc3ccccc3C(F)(F)F)sc21` it was over 3.5.
The same measure, in the same setting: in the case of `CC(C)Cn1c(=O)n(C)c(=O)c2c(C(=O)N3CC[C@@H](O)C3)c(Cc3ccccc3C(F)(F)F)sc21` it was 2.7; in that of `Cc1nc(Cl)c(Cl)n1Cc1sc2c(c1C(=O)N1CC[C@@H](O)C1)c(=O)n(C)c(=O)n2CC(C)C`, 1.6.
Still for that read-out and setting: in the case of `CC(C)Cn1c(=O)n(C)c(=O)c2c(C(=O)N3CC[C@@H](O)C3)c(Cc3c[nH]c4ncccc34)sc21` it was 1.7.
Compound `CNc1nc2ccccc2n1Cc1sc2c(c1C(=O)N1CC[C@@H](O)C1)c(=O)n(C)c(=O)n2CC(C)C` gave a logD of 1.6.
Consider `CC(C)Cn1c(=O)n(C)c(=O)c2c(C(=O)N3CC[C@@H](O)C3)c(Cc3ccnc4ccccc34)sc21`, for which the logD was 1.7.
As for `CC(C)Cc1nn(C)c(=O)c2c(SCCCO)n(Cc3cccc4ccccc34)cc12`, the logD is 4.8.
On the same count and under the same terms, in the case of `CC(C)Cn1c(=O)n(C)c(=O)c2c(SCCCO)n(Cc3cccc4ccccc34)cc21` it was 4.4; in that of `CC(C)Cn1c(=O)n(C)c(=O)c2c(S[C@@H]3CC[C@H](O)C3)c(Cc3ccccc3C(F)(F)F)sc21` (racemic), 4.4; in that of `CC(C)Cn1c(=O)n(C)c(=O)c2c(SCCCO)c(Cc3ccccc3C(F)(F)F)sc21`, 4.1.
The same measure, in the same setting: in the case of `CC(C)Cn1c(=O)n(C)c(=O)c2c(SCC(O)CO)c(Cc3ccccc3C(F)(F)F)sc21` (racemic) it was over 4.5.
For `CC(C)Cn1c(=O)n(C)c(=O)c2c(C(=O)N3CC(C)(O)C3)c(Cc3ccccc3C(F)(F)F)sc21`, the log distribution coefficient (logD) was determined as 3.2.
On the same count and under the same terms, for `CC(C)Cn1c(=O)n(C)c(=O)c2c(C(=O)N3CC[C@@H](O)C3)c(Cc3c[nH]c4ccccc34)sc21` the value was 2.4; for `CC(C)Cn1c(=O)n(C)c(=O)c2c(S[C@@H]3CCC[C@H]3O)c(Cc3ccccc3C(F)(F)F)sc21` (racemic), 4.2.
`CC(C)Cn1c(=O)n(C)c(=O)c2c(C(=O)N3CCCC3)c(Cc3ccccc3C(F)(F)F)sc21` gave a logD of 3.8.
Same read-out and setting: for `CC(C)Cn1c(=O)n(C)c(=O)c2c(C(=O)N3CC[C@@H](O)C3)c(Cc3cccc4ncccc34)sc21` the value was 2; for `CC(C)Cn1c(=O)n(C)c(=O)c2c(S(=O)(=O)N3CC[C@@H](O)C3)c(Cc3ccccc3C(F)(F)F)sc21` (racemic), 3.3.

The solubility is the dissolved amount per volume that the medium holds. High values mean much dissolved substance, low ones little dissolved substance. The logD is lipophilicity at a set pH, counting ionised and neutral species. The low end stands for a more hydrophilic compound, the high end for a more lipophilic compound.

These data come from ChEMBL document CHEMBL1146970, “Potent blockers of the monocarboxylate transporter MCT1: novel immunomodulatory compounds” (Bioorg Med Chem Lett, 2006).
